# Data from ChEMBL document CHEMBL1150788, “In vitro susceptibility of Sporothrix schenckii to six antifungal agents determined using three different methods” (2007).
# Experiments:
# Format in all cases: functional
# Sporothrix schenckii [1] = assay: Antifungal activity against Sporothrix schenckii P0019 isolate from cutaneous-lymphatic sporotrichosis patient after 72 hrs by Sensititre YeastOne method
# Sporothrix schenckii [2] = assay: Antifungal activity against Sporothrix schenckii SSA29 isolate from cutaneous-lymphatic sporotrichosis patient after 72 hrs by Sensititre YeastOne method
# Sporothrix schenckii [3] = assay: Antifungal activity against Sporothrix schenckii P30019 isolate from cutaneous-lymphatic sporotrichosis patient after 72 hrs by Sensititre YeastOne method
# Sporothrix schenckii [4] = assay: Antifungal activity against Sporothrix schenckii P26187 isolate from cutaneous-lymphatic sporotrichosis patient after 72 hrs by Sensititre YeastOne method
# Sporothrix schenckii [5] = assay: Antifungal activity against Sporothrix schenckii P14036 isolate from cutaneous-lymphatic sporotrichosis patient after 72 hrs by Sensititre YeastOne method
# Sporothrix schenckii [6] = assay: Antifungal activity against Sporothrix schenckii P24255 isolate from cutaneous-lymphatic sporotrichosis patient after 72 hrs by Sensititre YeastOne method
# Sporothrix schenckii [7] = assay: Antifungal activity against Sporothrix schenckii P20825 isolate from cutaneous-lymphatic sporotrichosis patient after 72 hrs by Sensititre YeastOne method
# Sporothrix schenckii [8] = assay: Antifungal activity against Sporothrix schenckii P30915 isolate from cutaneous-lymphatic sporotrichosis patient after 72 hrs by Sensititre YeastOne method
# Sporothrix schenckii [9] = assay: Antifungal activity against Sporothrix schenckii isolate from cutaneous-lymphatic sporotrichosis patient after 72 hrs by Sensititre YeastOne method
# Sporothrix schenckii [10] = assay: Antifungal activity against Sporothrix schenckii P3287 isolate from cutaneous-lymphatic sporotrichosis patient after 72 hrs by Sensititre YeastOne method
# Sporothrix schenckii [11] = assay: Antifungal activity against Sporothrix schenckii P25013 isolate from cutaneous-lymphatic sporotrichosis patient after 72 hrs by Sensititre YeastOne method
# Candida parapsilosis [12] = assay: Antifungal activity against Candida parapsilosis ATCC 22019 […] after 72 hrs by Sensititre YeastOne method; conditions: Lodderomyces parapsilosis, ATCC 22019, 72 h
# Sporothrix schenckii [13] = assay: Antifungal activity against Sporothrix schenckii MRSS4 isolate from cutaneous-lymphatic sporotrichosis patient after 72 hrs by Sensititre YeastOne method
# Sporothrix schenckii [14] = assay: Antifungal activity against Sporothrix schenckii PSCC1 isolate from cutaneous-lymphatic sporotrichosis patient after 72 hrs by Sensititre YeastOne method
# Sporothrix schenckii [15] = assay: Antifungal activity against Sporothrix schenckii PGAC0016 isolate from cutaneous-lymphatic sporotrichosis patient after 72 hrs by Sensititre YeastOne method
# Pichia kudriavzevii [16] = assay: Antifungal activity against Candida krusei ATCC 6258 […] after 72 hrs by Sensititre YeastOne method; conditions: ATCC 6258, 72 h
# Sporothrix schenckii [17] = assay: Antifungal activity against Sporothrix schenckii PJRC002 isolate from cutaneous-lymphatic sporotrichosis patient after 72 hrs by Sensititre YeastOne method
# Sporothrix schenckii [18] = assay: Antifungal activity against Sporothrix schenckii P14954 isolate from cutaneous-lymphatic sporotrichosis patient after 72 hrs by Sensititre YeastOne method
# Sporothrix schenckii [19] = assay: Antifungal activity against Sporothrix schenckii P24223 isolate from cutaneous-lymphatic sporotrichosis patient after 72 hrs by Sensititre YeastOne method
# Sporothrix schenckii [20] = assay: Antifungal activity against Sporothrix schenckii PSSA81 isolate from cutaneous-lymphatic sporotrichosis patient after 72 hrs by Sensititre YeastOne method
# Sporothrix schenckii [21] = assay: Antifungal activity against Sporothrix schenckii P10012 isolate from cutaneous-lymphatic sporotrichosis patient after 72 hrs by Sensititre YeastOne method
# Sporothrix schenckii [22] = assay: Antifungal activity against Sporothrix schenckii P1621 isolate from cutaneous-lymphatic sporotrichosis patient after 72 hrs by Sensititre YeastOne method
# Candida parapsilosis [23] = assay: Antifungal activity against Candida parapsilosis ATCC 22019 […] after 72 hrs by modified NCCLS M38-A method; conditions: Lodderomyces parapsilosis, ATCC 22019, 72 h
# Sporothrix schenckii [24] = assay: Antifungal activity against Sporothrix schenckii P24223 isolate from cutaneous-lymphatic sporotrichosis patient after 72 hrs by modified NCCLS M38-A method
# Sporothrix schenckii [25] = assay: Antifungal activity against Sporothrix schenckii PJRC002 isolate from cutaneous-lymphatic sporotrichosis patient after 72 hrs by modified NCCLS M38-A method
# Sporothrix schenckii [26] = assay: Antifungal activity against Sporothrix schenckii P14954 isolate from cutaneous-lymphatic sporotrichosis patient after 72 hrs by modified NCCLS M38-A method
# Sporothrix schenckii [27] = assay: Antifungal activity against Sporothrix schenckii PSSA81 isolate from cutaneous-lymphatic sporotrichosis patient after 72 hrs by modified NCCLS M38-A method
# Sporothrix schenckii [28] = assay: Antifungal activity against Sporothrix schenckii P0019 isolate from cutaneous-lymphatic sporotrichosis patient after 72 hrs by modified NCCLS M38-A method
# Aspergillus flavus [29] = assay: Antifungal activity against Aspergillus flavus ATCC 204304 […] after 72 hrs by modified NCCLS M38-A method; conditions: ATCC 204304, 72 h
# Sporothrix schenckii [30] = assay: Antifungal activity against Sporothrix schenckii P24255 isolate from cutaneous-lymphatic sporotrichosis patient after 72 hrs by modified NCCLS M38-A method
# Sporothrix schenckii [31] = assay: Antifungal activity against Sporothrix schenckii PGAC0016 isolate from cutaneous-lymphatic sporotrichosis patient after 72 hrs by modified NCCLS M38-A method
# Sporothrix schenckii [32] = assay: Antifungal activity against Sporothrix schenckii P26187 isolate from cutaneous-lymphatic sporotrichosis patient after 72 hrs by modified NCCLS M38-A method
# Sporothrix schenckii [33] = assay: Antifungal activity against Sporothrix schenckii P3287 isolate from cutaneous-lymphatic sporotrichosis patient after 72 hrs by modified NCCLS M38-A method
# Sporothrix schenckii [34] = assay: Antifungal activity against Sporothrix schenckii P1621 isolate from cutaneous-lymphatic sporotrichosis patient after 72 hrs by modified NCCLS M38-A method
# Pichia kudriavzevii [35] = assay: Antifungal activity against Candida krusei ATCC 6258 […] after 72 hrs by modified NCCLS M38-A method; conditions: ATCC 6258, 72 h
# Sporothrix schenckii [36] = assay: Antifungal activity against Sporothrix schenckii P30019 isolate from cutaneous-lymphatic sporotrichosis patient after 72 hrs by modified NCCLS M38-A method
# Sporothrix schenckii [37] = assay: Antifungal activity against Sporothrix schenckii MRSS4 isolate from cutaneous-lymphatic sporotrichosis patient after 72 hrs by modified NCCLS M38-A method
# Sporothrix schenckii [38] = assay: Antifungal activity against Sporothrix schenckii P25013 isolate from cutaneous-lymphatic sporotrichosis patient after 72 hrs by modified NCCLS M38-A method
# Sporothrix schenckii [39] = assay: Antifungal activity against Sporothrix schenckii isolate from cutaneous-lymphatic sporotrichosis patient after 72 hrs by modified NCCLS M38-A method
# Sporothrix schenckii [40] = assay: Antifungal activity against Sporothrix schenckii P20825 isolate from cutaneous-lymphatic sporotrichosis patient after 72 hrs by modified NCCLS M38-A method
# Sporothrix schenckii [41] = assay: Antifungal activity against Sporothrix schenckii PSCC1 isolate from cutaneous-lymphatic sporotrichosis patient after 72 hrs by modified NCCLS M38-A method
# Sporothrix schenckii [42] = assay: Antifungal activity against Sporothrix schenckii P10012 isolate from cutaneous-lymphatic sporotrichosis patient after 72 hrs by modified NCCLS M38-A method
# Sporothrix schenckii [43] = assay: Antifungal activity against Sporothrix schenckii P14036 isolate from cutaneous-lymphatic sporotrichosis patient after 72 hrs by modified NCCLS M38-A method
# Sporothrix schenckii [44] = assay: Antifungal activity against Sporothrix schenckii SSA29 isolate from cutaneous-lymphatic sporotrichosis patient after 72 hrs by modified NCCLS M38-A method
# Sporothrix schenckii [45] = assay: Antifungal activity against Sporothrix schenckii P30915 isolate from cutaneous-lymphatic sporotrichosis patient after 72 hrs by modified NCCLS M38-A method
# Aspergillus flavus [46] = assay: Antifungal activity against Aspergillus flavus ATCC 204304 […] after 72 hrs by Sensititre YeastOne method; conditions: ATCC 204304, 72 h
smiles,measurement,setting,value
CC(=O)N1CCN(c2ccc(OCC3COC(Cn4ccnc4)(c4ccc(Cl)cc4Cl)O3)cc2)CC1 (stereo unspecified) [KETOCONAZOLE],MIC,Sporothrix schenckii [1],0.06 µg/mL
same,MIC,Sporothrix schenckii [2],0.25 µg/mL
same,MIC,Sporothrix schenckii [3],0.125 µg/mL
same,MIC,Sporothrix schenckii [4],0.25 µg/mL
same,MIC,Sporothrix schenckii [5],0.125 µg/mL
same,MIC,Sporothrix schenckii [6],0.125 µg/mL
same,MIC,Sporothrix schenckii [7],0.125 µg/mL
same,MIC,Sporothrix schenckii [8],0.5 µg/mL
same,MIC50,Sporothrix schenckii [9],0.25 µg/mL
same,MIC90,Sporothrix schenckii [9],0.5 µg/mL
same,MIC,Sporothrix schenckii [10],0.5 µg/mL
same,MIC,Sporothrix schenckii [11],0.06 µg/mL
same,MIC,Candida parapsilosis [12],0.125 µg/mL
same,MIC,Sporothrix schenckii [13],0.25 µg/mL
same,MIC,Sporothrix schenckii [14],0.125 µg/mL
same,MIC,Sporothrix schenckii [15],0.125 µg/mL
same,MIC,Pichia kudriavzevii [16],1 µg/mL
same,MIC,Sporothrix schenckii [17],0.125 µg/mL
same,MIC,Sporothrix schenckii [18],0.25 µg/mL
same,MIC,Sporothrix schenckii [19],0.5 µg/mL
same,MIC,Sporothrix schenckii [20],0.06 µg/mL
same,MIC,Sporothrix schenckii [21],0.25 µg/mL
same,MIC,Sporothrix schenckii [22],0.25 µg/mL
C[C@@H](c1ncncc1F)[C@](O)(Cn1cncn1)c1ccc(F)cc1F [VORICONAZOLE],MIC,Sporothrix schenckii [1],0.5 µg/mL
same,MIC,Sporothrix schenckii [2],4 µg/mL
same,MIC,Sporothrix schenckii [3],1 µg/mL
same,MIC,Candida parapsilosis [23],0.03 µg/mL
same,MIC,Sporothrix schenckii [24],8 µg/mL
same,MIC,Sporothrix schenckii [4],4 µg/mL
same,MIC,Sporothrix schenckii [25],4 µg/mL
same,MIC,Sporothrix schenckii [26],16 µg/mL
same,MIC,Sporothrix schenckii [5],0.5 µg/mL
same,MIC,Sporothrix schenckii [27],8 µg/mL
same,MIC,Sporothrix schenckii [28],16 µg/mL
same,MIC,Aspergillus flavus [29],0.5 µg/mL
same,MIC,Sporothrix schenckii [30],8 µg/mL
same,MIC,Sporothrix schenckii [31],16 µg/mL
same,MIC,Sporothrix schenckii [6],4 µg/mL
same,MIC,Sporothrix schenckii [32],8 µg/mL
same,MIC,Sporothrix schenckii [7],0.5 µg/mL
same,MIC,Sporothrix schenckii [8],4 µg/mL
same,MIC50,Sporothrix schenckii [9],2 µg/mL
same,MIC90,Sporothrix schenckii [9],8 µg/mL
same,MIC,Sporothrix schenckii [10],8 µg/mL
same,MIC,Sporothrix schenckii [11],0.5 µg/mL
same,MIC,Sporothrix schenckii [33],16 µg/mL
same,MIC,Candida parapsilosis [12],0.06 µg/mL
same,MIC,Sporothrix schenckii [34],16 µg/mL
same,MIC,Sporothrix schenckii [13],2 µg/mL
same,MIC,Pichia kudriavzevii [35],0.12 µg/mL
same,MIC,Sporothrix schenckii [36],4 µg/mL
same,MIC,Sporothrix schenckii [14],2 µg/mL
same,MIC,Sporothrix schenckii [37],8 µg/mL
same,MIC,Sporothrix schenckii [15],4 µg/mL
same,MIC,Sporothrix schenckii [38],8 µg/mL
same,MIC,Pichia kudriavzevii [16],1 µg/mL
same,MIC,Sporothrix schenckii [17],2 µg/mL
same,MIC50,Sporothrix schenckii [39],8 µg/mL
same,MIC90,Sporothrix schenckii [39],16 µg/mL
same,MIC,Sporothrix schenckii [40],8 µg/mL
same,MIC,Sporothrix schenckii [41],4 µg/mL
same,MIC,Sporothrix schenckii [18],8 µg/mL
same,MIC,Sporothrix schenckii [42],16 µg/mL
same,MIC,Sporothrix schenckii [19],8 µg/mL
same,MIC,Sporothrix schenckii [43],8 µg/mL
same,MIC,Sporothrix schenckii [20],0.5 µg/mL
same,MIC,Sporothrix schenckii [21],0.5 µg/mL
same,MIC,Sporothrix schenckii [44],8 µg/mL
same,MIC,Sporothrix schenckii [45],16 µg/mL
same,MIC,Aspergillus flavus [46],0.25 µg/mL
same,MIC,Sporothrix schenckii [22],2 µg/mL
